Results taken from article PMC6220303 (EMBO Molecular Medicine, 2018).

Legend:
APP23‐transgenic mice = experiment: Chronic treatment of APP23-transgenic mice, 6 months in food; assay type: in vivo, mouse
Experimental: The total amount of Aβ40 and Aβ42 in formic acid‐solubilized forebrain was determined by Aβ immunoassay. […] Next, we investigated the effects of long‐term Aβ reduction on downstream pathology relevant for Alzheimer's disease, in particular neuroinflammation. Specifically, we used double‐immunofluorescence staining with NT12+anti‐Iba1 and NT12+anti‐GFAP to examine the number and localization of microglia and activated astrocytes, respectively (Fig 4E). […] The reason for the different sensitivity of microglia and astrocytes distant to plaques is currently not clear.
Electrochemiluminescence immunoassays (Mesoscale Diagnostics, Rockville, MD, USA) were used to determine Aβ38, Aβ40, Aβ42, sAPPα, and sAPPβ. For studies in normal mice and rats, the endogenous Aβ40 was extracted from the brain homogenate with 1% Triton X‐100, and the 4G8‐based assay kit was used for quantification according to the manufacturer's instructions. CSF was collected from the cisterna magna and also analyzed using the 4G8 kit. For studies in dogs, CSF was collected via a ventricular port, and the 6E10‐based Mesoscale Diagnostics kit for Aβ was used. For studies in APP23 mice, Aβ40 and Aβ42 were determined after extraction with 70% formic acid and subsequent neutralization.
Amyloid plaques were stained using the Novartis-internal rabbit anti-Aβ antibody NT12, which recognizes all forms of Aβ (Neumann et al, 2015). Activated astrocytes were detected using a commercial rabbit anti-GFAP (Z0334, Dako Schweiz GmbH, Baar, Switzerland, dilution 1:2000 in antibody diluent). Microglia cells were detected using a rabbit anti-Iba1 antibody (019-19741, Wako Chemicals GmbH, Neuss, Germany, dilution 1:200 in antibody diluent). All stainings were performed using the fully automated instrument Ventana Discovery® Ultra (Roche Diagnostics Schweiz AG, Rotkreuz, Switzerland). All chemicals were provided by Roche Diagnostic. Paraffin-embedded brain tissue sections of 3 µm were freshly cut and collected on SuperFrost+ slides. The tissues sections were de-paraffinized and rehydrated under solvent-free conditions (EZprep solution) followed by antigen retrieval (demasking) performed by heat retrieval cycles for 32 min in EDTA-based buffer (CC1 solution). Subsequently, slides were blocked for 4 min using the DISC Inhibitor RUO (reference 07017944001). The primary antibody anti-NT12 diluted at 1:20 000 in antibody diluent was manually added to tissue sections and incubated for 1h at room temperature. A short post-fixation (glutaraldehyde at 0.05%) was done before applying the […]
Detection was performed using the DISCOVERY FITC® following the manufacturer’s recommendations. Slides were then heat denaturated at 92°C for 20 min before a manual application of the second primary antibody (anti-GFAP diluted at 1:2000, anti-Iba1 diluted at 1:200) and incubated for 1h at room temperature. Sections were then incubated for 20 min at room temperature with UltraMap-anti-Rabbit HRP antibody, and the DISCOVERY Rhodamine kit […]
The slides were washed and mounted using Prolong® Gold antifade reagent (P36931, ThermoFisher, Switzerland) and further scanned with the Hamamatsu slide scanner instrument […]
(NanoZoomer 2.0 HT, scanning software NDP-Scan Version 2.5, Hamamatsu Photonics France, Swiss Office, Solothurn, Switzerland) at the 40x objective. The scanning settings were as follow: the exposure time with the DAPI filter was set at 57 ms, as was the FITC filter. The exposure time for the TRITC filter (detection of Rhodamine) was set at 14.2 ms.
For the quantitative plaque and blood vessel-associated Aβ evaluation based on image analysis, a proprietary image analysis platform (ASTORIA, Automated Stored Image Analysis) was developed based on MS Visual Studio 2010 and many functions from Matrox MIL V9 libraries (Matrox Inc, Quebec, Canada).
For the Aβ plaque, neuroinflammation and blood vessel analyses, the following sequence of steps was performed. (1) Slides were scanned with Hamamatsu Nanozoomer at 40x […]
magnification. […]

[1] = system: healthy participants ≥ 60 years; experiment: Adverse events after single dose (Appendix Table S6); assay type: in vivo, human
Source text: (§1) For further details, see the Appendix Table S10 in Appendix and the accompanying clinical protocols synopsis (Appendix Table S11).
Appendix Table S3. Overview of completed clinical studies with CNP520
Study description Population No. of Participants Dose/Frequency […]
First-in-human, randomized, 18-55 yrs 38 / 14 Single dose (10, 30, 90, […]
controlled, single and multiple CNP520 vs placebo) ascending oral dose study to Single dose (10, 90, 300,

healthy participants = experiment: Safety and tolerability in early clinical studies; assay type: in vivo, human; conditions: for dose up to which no dose-limiting safety or tolerability findings were observed: participants ≥ 60 years
Experimental: Only the single ascending dose studies were performed in adults 18–55 or 20–45 years of age, whereas the participants in all subsequent single and multiple dose studies were cognitively normal male and post‐menopausal female subjects ≥ 60 years of age, similar to the age range of our target population in the Generation Program.
as §1

[2] = Shelf life of the clinical capsule form; assay type: physicochemical; conditions: kept refrigerated
C57/BL6 mice = experiment: Hair depigmentation study, 8 weeks dosing; assay type: in vivo, mouse
Experimental: Compounds were either mixed in feed or given as a suspension orally. […] Vehicle or compounds were given orally in a volume of 10 ml/kg once daily (mornings) for 8 weeks. Vehicle: 0.1% Tween‐80 in 0.5% methylcellulose in water. […] The vehicle group was treated with food pellets containing no compound. The β1 antibody was dosed 0.5 mg/kg body weight, once weekly intraperitoneally, diluted in 90 nM NaCl, 50 nM Tris pH 7.1.

CSF Aβ = experiment: Human CSF Aβ after 2-week once-daily dosing; assay type: in vivo; conditions: 2 weeks, 24 h after last dose, mean ± SEM
Experimental: (A) Changes in Aβ40 relative to baseline values. (B) Changes in sAPPβ relative to baseline values.
CSF was sampled by single lumbar punctures at baseline and 24 h after the last dose, and the change in Aβ concentrations from baseline to end of treatment was determined.
Human CSF was collected from an indwelling spinal catheter inserted into the lower spinal canal (in the single ascending dose (SAD) PD first in human (FIH) study) or by a lumbar puncture (in the multiple ascending dose (MAD) PD Phase I study and Phase IIa study), and by trained personnel at the site and as per their standard operating procedure (SOP). CSF Aβ38, Aβ40, Aβ42, sAPPα, and sAPPβ were quantified in human CSF with 0.2% (v/v) Tween®‐20 using validated sandwich‐based multiplexed electrochemiluminescence methods (MesoScale Discovery, […], MD, USA).

C[C@@]1(c2nc(NC(=O)c3ncc(C(F)(F)F)cc3Cl)ccc2F)CO[C@@](C)(C(F)(F)F)C(N)=N1 [CNP520]
CNP520 concentration in blood and brain at end of study (APP23‐transgenic mice; 4 and 40 mg/kg/day in food): approximately dose‐proportional
total Aβ-plaque area in the cortex (normalized to sample area) compared with vehicle (APP23‐transgenic mice; 4 and 40 mg/kg/day in food, 6 months, dose-dependent): decreased
sAPPα in mouse brain (APP23‐transgenic mice; 6 months): increased
increase in GFAP-stained astrocytes (APP23‐transgenic mice; 6 months, dose-dependent): prevented this increase
sAPPβ in mouse brain (APP23‐transgenic mice; 6 months, dose-dependent): decreased
formic acid-soluble Aβ40 and Aβ42 in forebrain compared with vehicle (APP23‐transgenic mice; high dose 40 mg/kg/day, 6 months): profoundly reduced
effect on CAA (vascular Aβ) in APP23 mice (APP23‐transgenic mice; separate study, first data, authors' response in review file): reduction of vascular Aβ
AE incidence: Blood and lymphatic system disorders ([1]; single dose 300 mg, N = 10): 1 (10.0) n (%)
AE incidence: Cardiac disorders ([1]; single dose 300 mg, N = 10): 1 (10.0) n (%)
AE incidence: Gastrointestinal disorders ([1]; single dose 300 mg, N = 10): 4 (40.0) n (%)
AE incidence: General disorders and administration site conditions ([1]; single dose 300 mg, N = 10): 3 (30.0) n (%)
AE incidence: Nervous system disorders ([1]; single dose 300 mg, N = 10): 4 (40.0) n (%)
AE incidence: Renal and urinary disorders ([1]; single dose 300 mg, N = 10): 0 (0.0) n (%)
AE incidence: Respiratory, thoracic and mediastinal disorders ([1]; single dose 300 mg, N = 10): 2 (20.0) n (%)
AE incidence: Skin and subcutaneous tissue disorders ([1]; single dose 300 mg, N = 10): 3 (30.0) n (%)
Participants with at least one AE ([1]; single dose 300 mg, N = 10): 10 (100.0) n (%)
AE incidence: Blood and lymphatic system disorders ([1]; single dose 750 mg, N = 11): 0 (0.0) n (%)
AE incidence: Cardiac disorders ([1]; single dose 750 mg, N = 11): 0 (0.0) n (%)
AE incidence: Gastrointestinal disorders ([1]; single dose 750 mg, N = 11): 3 (27.3) n (%)
AE incidence: General disorders and administration site conditions ([1]; single dose 750 mg, N = 11): 3 (27.3) n (%)
AE incidence: Nervous system disorders ([1]; single dose 750 mg, N = 11): 7 (63.6) n (%)
AE incidence: Renal and urinary disorders ([1]; single dose 750 mg, N = 11): 1 (9.1) n (%)
AE incidence: Respiratory, thoracic and mediastinal disorders ([1]; single dose 750 mg, N = 11): 0 (0.0) n (%)
AE incidence: Skin and subcutaneous tissue disorders ([1]; single dose 750 mg, N = 11): 1 (9.1) n (%)
Participants with at least one AE ([1]; single dose 750 mg, N = 11): 9 (81.8) n (%)
skin-related AEs, mostly driven by pruritus (healthy participants; 3-month study, 4% for placebo): 18%
abuse potential (healthy participants; clinical studies): no signal for abuse potential
dose up to which no dose-limiting safety or tolerability findings were observed (healthy participants; for 2 weeks (maximum multiple dose tested)): ≤ 300 mg
dose up to which no dose-limiting safety or tolerability findings were observed (healthy participants; for 3 months): up to 85 mg
dose up to which no dose-limiting safety or tolerability findings were observed (healthy participants; single dose): up to 750 mg
shelf life of the capsule form [2]: 24 months
changes in other pigmented organs (hair follicle, choroid, retina pigmented epithelium) by histopathology (C57/BL6 mice; C57/BL6 mice, 8 weeks): Neither did we observe any changes in other pigmented organs
Aβ40 reduction in the brain (C57/BL6 mice; at doses with no change in hair color): more than 90%
hair depigmentation / change in hair color (C57/BL6 mice; male C57/BL6 mice, 8 weeks oral once daily): No change in hair color
Aβ reduction in CSF from baseline to end of treatment (CSF Aβ; 10 mg daily dose): 59.8 ± 9.88%
Aβ reduction in CSF from baseline to end of treatment (CSF Aβ; 300 mg daily dose): 93.9 ± 2.09%
